Measured values as given in patent US9487515B2, “Compounds modulating c-fms and/or c-kit activity and uses therefor” (Plexxikon Inc., priority 2006, dated 2016).

Biological target: c-kit (Homo sapiens, UniProt P10721)
Experiment: c-kit assays of Examples 40 and 41 (AlphaScreen kinase assays at 10 and 100 μM ATP, 33P-ATP filter assay, M-07e SCF-stimulated proliferation and phosphorylation)

Chain of c-kit (P10721 with tags, fused parts or gaps): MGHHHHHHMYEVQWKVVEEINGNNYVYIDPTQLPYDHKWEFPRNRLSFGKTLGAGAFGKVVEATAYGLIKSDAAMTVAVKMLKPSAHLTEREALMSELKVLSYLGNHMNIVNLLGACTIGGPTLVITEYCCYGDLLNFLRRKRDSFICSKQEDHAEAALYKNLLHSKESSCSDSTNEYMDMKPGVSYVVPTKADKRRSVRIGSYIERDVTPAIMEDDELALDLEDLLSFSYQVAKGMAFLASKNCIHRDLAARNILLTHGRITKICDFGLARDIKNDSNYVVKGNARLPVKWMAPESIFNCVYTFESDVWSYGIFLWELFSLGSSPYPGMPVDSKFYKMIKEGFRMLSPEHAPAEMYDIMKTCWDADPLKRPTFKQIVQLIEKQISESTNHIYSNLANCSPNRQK

SMILES	IC50 [nM]
N#Cc1cnc2[nH]cc(Cc3ccc(NCc4ccc(C(F)(F)F)nc4)nc3)c2c1 [P-0273, 3-{6-[(6-Trifluoromethyl-pyridin-3-ylmethyl)-amino]-pyridin-3-ylmethyl}-1H-pyrrolo[2,3-b]pyridine-5-carbonitrile]	< 1000
Fc1ccccc1CNc1ncc(Cc2c[nH]c3ncc(Cl)cc23)cn1 [P-0264, [5-(5-Chloro-1H-pyrrolo[2,3-b]pyridin-3-ylmethyl)-pyrimidin-2-yl]-(2-fluoro-benzyl)-amine]	< 1000
COc1ccc(CNc2ccc(Cc3c[nH]c4ncc(Cl)cc34)cn2)cn1 [P-0283, [5-(5-Chloro-1H-pyrrolo[2,3-b]pyridin-3-ylmethyl)-pyridin-2-yl]-(6-methoxy-pyridin-3-ylmethyl)-amine]	< 1000
Fc1ccccc1CNc1ccc(Cc2c[nH]c3ncc(Cl)cc23)cn1 [P-0270, [5-(5-Chloro-1H-pyrrolo[2,3-b]pyridin-3-ylmethyl)-pyridin-2-yl]-(2-fluoro-benzyl)-amine]	< 1000
Cc1cnc2[nH]cc(Cc3ccc(NCc4ccc(C(F)(F)F)nc4)nc3Cl)c2c1 [P-0234, [6-Chloro-5-(5-methyl-1H-pyrrolo[2,3-b]pyridin-3-ylmethyl)-pyridin-2-yl]-(6-trifluoromethyl-pyridin-3-ylmethyl)-amine]	< 1000
O=C(Nc1ccc(Cc2c[nH]c3ncccc23)cn1)c1ccc(F)c(F)c1 [P-0116, 3,4-Difluoro-N-[5-(1H-pyrrolo[2,3-b]pyridin-3-ylmethyl)-pyridin-2-yl]-benzamide]	< 1000
c1cc(CNc2ccc(Cc3c[nH]c4ncccc34)cn2)nc(N2CCOCC2)c1 [P-0228, (6-Morpholin-4-yl-pyridin-2-ylmethyl)-[5-(1H-pyrrolo[2,3-b]pyridin-3-ylmethyl)-pyridin-2-yl]-amine]	< 1000
c1ccc(CCNc2ccc(Cc3c[nH]c4ncccc34)cn2)cc1 [P-0211, Phenethyl-[5-(1H-pyrrolo[2,3-b]pyridin-3-ylmethyl)-pyridin-2-yl]-amine]	< 1000
Fc1c(CNc2ncc(Cc3c[nH]c4ncc(Cl)cc34)cn2)cccc1C(F)(F)F [P-0393, [5-(5-Chloro-1H-pyrrolo[2,3-b]pyridin-3-ylmethyl)-pyrimidin-2-yl]-(2-fluoro-3-trifluoromethyl-benzyl)-amine]	< 1000
Clc1ccc(CNc2ccc(Cc3c[nH]c4ncc(Br)cc34)cn2)cc1 [P-0038, [5-(5-Bromo-1H-pyrrolo[2,3-b]pyridin-3-ylmethyl)-pyridin-2-yl]-(4-chloro-benzyl)-amine]	< 1000
Fc1cnc2[nH]cc(Cc3ccc(NCc4ccccc4Cl)nc3)c2c1 [P-0327, (2-Chloro-benzyl)-[5-(5-fluoro-1H-pyrrolo[2,3-b]pyridin-3-ylmethyl)-pyridin-2-yl]-amine]	< 1000
FC(F)(F)COc1ncccc1CNc1ccc(Cc2c[nH]c3ncccc23)cn1 [P-0376, [5-(1H-Pyrrolo[2,3-b]pyridin-3-ylmethyl)-pyridin-2-yl]-[2-(2,2,2-trifluoro-ethoxy)-pyridin-3-ylmethyl]-amine]	< 1000
Cc1cnc2[nH]cc(Cc3ccc(NCc4cc(F)ccc4F)nc3)c2c1 [P-0297, (2,5-Difluoro-benzyl)-[5-(5-methyl-1H-pyrrolo[2,3-b]pyridin-3-ylmethyl)-pyridin-2-yl]-amine]	< 1000
Cc1nc(-c2ccccc2)sc1Cn1nc(C)c(Cc2c[nH]c3ncccc23)c1C [P-0144, 3-[3,5-Dimethyl-1-(4-methyl-2-phenyl-thiazol-5-ylmethyl)-1H-pyrazol-4-ylmethyl]-1H-pyrrolo[2,3-b]pyridine]	< 1000
Fc1ccc(CNc2ccc(Cc3c[nH]c4ncccc34)cn2)nc1 [P-0355, (5-Fluoro-pyridin-2-ylmethyl)-[5-(1H-pyrrolo[2,3-b]pyridin-3-ylmethyl)-pyridin-2-yl]-amine]	< 1000
Fc1ccc(CNc2nc(Cl)c(Cc3c[nH]c4ncc(Cl)cc34)s2)c(F)c1 [P-0245, [4-Chloro-5-(5-chloro-1H-pyrrolo[2,3-b]pyridin-3-ylmethyl)-thiazol-2-yl]-(2,4-difluoro-benzyl)-amine]	< 1000
COc1ccc(CNc2ccc(Cc3c[nH]c4ncc(F)cc34)cn2)cn1 [P-0331, [5-(5-Fluoro-1H-pyrrolo[2,3-b]pyridin-3-ylmethyl)-pyridin-2-yl]-(6-methoxy-pyridin-3-ylmethyl)-amine]	< 1000
Fc1nc(NCc2ccc(C(F)(F)F)nc2)ccc1Cc1c[nH]c2ncc(Cl)cc12 [P-0186, [5-(5-Chloro-1H-pyrrolo[2,3-b]pyridin-3-ylmethyl)-6-fluoro-pyridin-2-yl]-(6-trifluoromethyl-pyridin-3-ylmethyl)-amine]	< 1000
Fc1ccc(CNc2ncc(Cc3c[nH]c4ncccc34)cn2)c(F)c1 [P-0306, (2,4-Difluoro-benzyl)-[5-(1H-pyrrolo[2,3-b]pyridin-3-ylmethyl)-pyrimidin-2-yl]-amine]	< 1000
COc1cccc(CNc2ccc(Cc3c[nH]c4ncccc34)cn2)n1 [P-0224, (6-Methoxy-pyridin-2-ylmethyl)-[5-(1H-pyrrolo[2,3-b]pyridin-3-ylmethyl)-pyridin-2-yl]-amine]	< 1000

SMILES	IC50 [nM]
c1cnc2[nH]cc(Cc3ccc(NCCN4CCOCC4)nc3)c2c1 [P-0099, (2-Morpholin-4-yl-ethyl)-[5-(1H-pyrrolo[2,3-b]pyridin-3-ylmethyl)-pyridin-2-yl]-amine]	< 1000
FC(F)(F)c1ccccc1CNc1ncc(Cc2c[nH]c3ncc(Cl)cc23)cn1 [P-0262, [5-(5-Chloro-1H-pyrrolo[2,3-b]pyridin-3-ylmethyl)-pyrimidin-2-yl]-(2-trifluoromethyl-benzyl)-amine]	< 1000
COc1ccc(CNc2ccc(Cc3c[nH]c4ncc(Cl)cc34)c(F)n2)cn1 [P-0379, [5-(5-Chloro-1H-pyrrolo[2,3-b]pyridin-3-ylmethyl)-6-fluoro-pyridin-2-yl]-(6-methoxy-pyridin-3-ylmethyl)-amine]	< 1000
FC(F)(F)c1cccc(CNc2ncc(Cc3c[nH]c4ncc(Cl)cc34)cn2)c1 [P-0268, [5-(5-Chloro-1H-pyrrolo[2,3-b]pyridin-3-ylmethyl)-pyrimidin-2-yl]-(3-trifluoromethyl-benzyl)-amine]	< 1000
Fc1ccc(F)c(CNc2ccc(Cc3c[nH]c4ncc(F)cc34)cn2)c1 [P-0329, (2,5-Difluoro-benzyl)-[5-(5-fluoro-1H-pyrrolo[2,3-b]pyridin-3-ylmethyl)-pyridin-2-yl]-amine]	< 1000
COc1ccc(CNc2ccc(Cc3c[nH]c4ncc(C)cc34)cn2)cn1 [P-0282, (6-Methoxy-pyridin-3-ylmethyl)-[5-(5-methyl-1H-pyrrolo[2,3-b]pyridin-3-ylmethyl)-pyridin-2-yl]-amine]	< 1000
FC(F)(F)c1ccccc1CNc1ccc(Cc2c[nH]c3ncc(Cl)cc23)cn1 [P-0275, [5-(5-Chloro-1H-pyrrolo[2,3-b]pyridin-3-ylmethyl)-pyridin-2-yl]-(2-trifluoromethyl-benzyl)-amine]	< 1000
Clc1ccc(CNc2nc(Cl)c(Cc3c[nH]c4ncc(Cl)cc34)s2)cc1 [P-0194, (4-Chloro-benzyl)-[4-chloro-5-(5-chloro-1H-pyrrolo[2,3-b]pyridin-3-ylmethyl)-thiazol-2-yl]-amine]	< 1000
FC(F)(F)c1ccc(CNc2nc(Cl)c(Cc3c[nH]c4ncccc34)s2)cn1 [P-0173, [4-Chloro-5-(1H-pyrrolo[2,3-b]pyridin-3-ylmethyl)-thiazol-2-yl]-(6-trifluoromethyl-pyridin-3-ylmethyl)-amine]	< 1000
COc1cccc(CNc2ccc(Cc3c[nH]c4ncccc34)cn2)c1F [P-0352, (2-Fluoro-3-methoxy-benzyl)-[5-(1H-pyrrolo[2,3-b]pyridin-3-ylmethyl)-pyridin-2-yl]-amine]	< 1000
O=C(Nc1ccc(Cc2c[nH]c3ncccc23)cn1)c1ccncc1 [P-0105, N-[5-(1H-Pyrrolo[2,3-b]pyridin-3-ylmethyl)-pyridin-2-yl]-isonicotinamide]	< 1000
CCCS(=O)(=O)Nc1ccc(F)c(CNc2ccc(Cc3c[nH]c4ncc(Cl)cc34)cn2)c1F [P-0259, Propane-1-sulfonic acid (3-{[5-(5-chloro-1H-pyrrolo[2,3-b]pyridin-3-ylmethyl)-pyridin-2-ylamino]-methyl}-2,4-difluoro-phenyl)-amide]	< 1000
CCCS(=O)(=O)Nc1cccc(CNc2ccc(Cc3c[nH]c4ncccc34)cn2)c1F [P-0377, Propane-1-sulfonic acid (2-fluoro-3-{[5-(1H-pyrrolo[2,3-b]pyridin-3-ylmethyl)-pyridin-2-ylamino]-methyl}-phenyl)-amide]	< 1000
Fc1ccc(C(F)(F)F)cc1CNc1ncc(Cc2c[nH]c3ncccc23)cn1 [P-0291, (2-Fluoro-5-trifluoromethyl-benzyl)-[5-(1H-pyrrolo[2,3-b]pyridin-3-ylmethyl)-pyrimidin-2-yl]-amine]	< 1000
COc1ccc(F)cc1CNc1ccc(Cc2c[nH]c3ncccc23)cn1 [P-0366, (5-Fluoro-2-methoxy-benzyl)-[5-(1H-pyrrolo[2,3-b]pyridin-3-ylmethyl)-pyridin-2-yl]-amine]	< 1000
FC(F)(F)c1cccc(CNc2ccc(Cc3c[nH]c4ncccc34)cn2)c1Cl [P-0363, (2-Chloro-3-trifluoromethyl-benzyl)-[5-(1H-pyrrolo[2,3-b]pyridin-3-ylmethyl)-pyridin-2-yl]-amine]	< 1000
O=C(Nc1ccc(Cc2c[nH]c3ncccc23)cn1)c1cccc(Cl)c1 [P-0111, 3-chloro-N-[5-(1H-pyrrolo[2,3-b]pyridin-3-ylmethyl)-pyridin-2-yl]-benzamide]	< 1000
O=C(c1ccc(NCc2ccccc2F)nc1)c1c[nH]c2ncc(Cl)cc12 [P-0404, (5-chloro-1H-pyrrolo[2,3-b]pyridin-3-yl)-[6-(2-fluoro-benzylamino)-pyridin-3-yl]-methanone]	< 1000
O=C(Nc1ccc(Cc2c[nH]c3ncccc23)cn1)c1cccc(C(F)(F)F)c1 [P-0114, N-[5-(1H-Pyrrolo[2,3-b]pyridin-3-ylmethyl)-pyridin-2-yl]-3-trifluoromethyl-benzamide]	< 1000
Fc1cccc(CNc2ccc(Cc3c[nH]c4ncccc34)cn2)c1F [P-0362, (2,3-Difluoro-benzyl)-[5-(1H-pyrrolo[2,3-b]pyridin-3-ylmethyl)-pyridin-2-yl]-amine]	< 1000
